One assay addresses T1, EGFR del746-750 T790M (Homo sapiens, UniProt P00533, DEL746-750/T790M).
T1 construct: purchased Carna Biosciences 08-528
Put plainly: EGFR del746-750 T790M biochemical assay (Caliper mobility shift). The note with it: 5 μM ATP; apparent Ki (Morrison fit) converted by Cheng-Prusoff, Km of ATP 2.1 μM; read-out: EGFR(T790M/d746-750) Ki. On the procedure: The exemplified compounds described herein were tested according to the assay below. The enzyme data reported in Tables 4-5 is generally a representative of multiple experiments.
Reactions proceed for 30 minutes at room temperature (22° C.) and are terminated with 80 mM 2,2′,2″,2″′-(ethane-1,2-diyldinitrilo)tetraacetic acid (EDTA). Product is detected using the Caliper mobility shift detection method where product and substrate are electrophoretically separated and measured.

Assay [1] addresses T2, phosphor-EGFR in H1975(L585R/T790M) mutant EGFR expressing cells (Homo sapiens, UniProt P00533, L858R/T790M).
T2 construct: host or cells: NCI-H1975
Put plainly: H1975 pEGFR MSD cellular assay. The format is cell-based. The settings on record: NCI-H1975 cells, serum starved, 1 hour compound incubation, pEGFR Tyr1068 MSD; read-out: HI975 pEGFR EC50. The gist of the method: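 NCI-H1975 cells, 30,000/well, serum-starved overnight, then treated 1 hour at 37° C with serially diluted compounds in serum-free medium (0.5% DMSO). Lysates captured on anti-phospho-EGFR plates overnight at 4° C, detected with SULFO-TAG anti-total EGFR by electrochemiluminescence. Inhibition vs untreated controls; EC50 from 4-parameter logistic fit.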

The next assay deals with T3, EGFR T790M L858R (Homo sapiens, UniProt P00533, L858R/T790M).
T3 construct: purchased Life Technologies PV4879
Put plainly: EGFR T790M L858R biochemical assay (Caliper mobility shift). The note with it: 5 μM ATP; apparent Ki (Morrison fit) converted by Cheng-Prusoff, Km of ATP 1.3 μM. The gist of the method:
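Reactions run 30 minutes at room temperature (22 °C), stopped with 80 mM EDTA. Phosphorylated product and substrate separated electrophoretically and quantified by Caliper mobility shift.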

The test system of assay [2] is H1975 (EGFR T790M/L858R) cell proliferation. Put plainly: H1975 proliferation assay (Cell Titer-Glo). The class given is cell-based. The note with it: Homo sapiens, NCI-H1975, 72 h, NCI-H1975 cells, 72 hour incubation, read-out: H1975 antiproliferative EC50. On the procedure:
H1975 Proliferation Assays
All cell culture reagents were purchased from Invitrogen/Gibco. Cells are cultured at 37° C. at 5% CO2 and split as recommended by ATCC.
(In general: In ATP-based viability assays light output follows the ATP content of the culture.)

SMILES strings stand for the structures.

These results are taken from patent publication US9951064B2, “Azaindazole compounds as inhibitors of T790M containing EGFR mutants” (Genentech, Inc., priority 2013, dated 2018).

The EC50 is the concentration needed to bring the measured effect to its halfway point.

T2 sequence (P00533 25-1210 T790M/L858R): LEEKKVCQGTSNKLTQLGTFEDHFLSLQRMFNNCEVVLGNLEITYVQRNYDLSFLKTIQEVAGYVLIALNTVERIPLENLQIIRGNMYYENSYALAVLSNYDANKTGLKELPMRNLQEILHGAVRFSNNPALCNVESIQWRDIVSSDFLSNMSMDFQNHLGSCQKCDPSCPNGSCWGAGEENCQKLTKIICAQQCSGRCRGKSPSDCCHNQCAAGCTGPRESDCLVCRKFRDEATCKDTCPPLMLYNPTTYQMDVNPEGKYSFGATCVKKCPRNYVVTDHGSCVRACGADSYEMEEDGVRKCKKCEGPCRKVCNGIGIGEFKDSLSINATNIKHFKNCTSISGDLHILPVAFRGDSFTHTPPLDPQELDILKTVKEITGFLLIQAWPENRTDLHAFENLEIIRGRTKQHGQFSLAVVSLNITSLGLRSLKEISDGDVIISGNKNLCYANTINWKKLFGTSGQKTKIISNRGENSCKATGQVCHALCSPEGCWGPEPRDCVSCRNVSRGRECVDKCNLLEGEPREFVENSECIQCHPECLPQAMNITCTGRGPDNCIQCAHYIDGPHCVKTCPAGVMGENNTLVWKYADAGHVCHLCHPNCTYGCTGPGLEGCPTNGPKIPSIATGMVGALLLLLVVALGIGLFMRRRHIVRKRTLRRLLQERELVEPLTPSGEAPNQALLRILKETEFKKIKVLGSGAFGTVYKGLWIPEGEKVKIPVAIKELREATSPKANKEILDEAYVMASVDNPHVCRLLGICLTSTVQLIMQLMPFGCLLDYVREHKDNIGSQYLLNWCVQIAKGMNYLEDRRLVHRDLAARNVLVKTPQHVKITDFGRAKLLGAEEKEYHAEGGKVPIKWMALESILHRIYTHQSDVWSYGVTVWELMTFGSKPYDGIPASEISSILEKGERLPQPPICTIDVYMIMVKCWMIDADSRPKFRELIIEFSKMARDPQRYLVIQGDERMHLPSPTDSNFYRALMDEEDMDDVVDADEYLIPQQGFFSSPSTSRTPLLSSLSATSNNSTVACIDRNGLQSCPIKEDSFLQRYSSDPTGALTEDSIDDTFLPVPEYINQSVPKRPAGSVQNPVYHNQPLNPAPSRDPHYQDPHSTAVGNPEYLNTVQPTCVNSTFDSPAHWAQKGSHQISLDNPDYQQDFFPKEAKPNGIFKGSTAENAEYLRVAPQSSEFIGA
T3 sequence (P00533 25-1210 T790M/L858R): as above
T1 sequence (P00533 with tags, fused parts or gaps DEL746-750/T790M limits assumed): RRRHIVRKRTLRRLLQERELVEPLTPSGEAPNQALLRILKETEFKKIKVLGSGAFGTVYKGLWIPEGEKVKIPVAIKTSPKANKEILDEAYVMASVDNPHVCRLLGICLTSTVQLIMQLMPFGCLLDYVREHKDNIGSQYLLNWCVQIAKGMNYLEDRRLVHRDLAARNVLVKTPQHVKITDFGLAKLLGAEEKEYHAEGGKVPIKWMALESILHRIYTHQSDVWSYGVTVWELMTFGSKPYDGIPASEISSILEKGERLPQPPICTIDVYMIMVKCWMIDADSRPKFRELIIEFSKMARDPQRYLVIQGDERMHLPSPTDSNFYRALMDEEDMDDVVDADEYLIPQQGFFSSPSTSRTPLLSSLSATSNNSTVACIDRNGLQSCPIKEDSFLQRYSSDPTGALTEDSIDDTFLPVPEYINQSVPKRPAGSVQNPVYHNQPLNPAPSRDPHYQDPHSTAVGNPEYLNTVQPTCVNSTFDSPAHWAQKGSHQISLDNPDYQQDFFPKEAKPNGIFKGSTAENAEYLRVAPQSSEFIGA

On to `CCC(C)n1nc(N2CC[C@@H](O)C2)c2cnc(Nc3ccnc(N4CCC(CC#N)(OC)CC4)n3)cc21` (mixture of isomers) [Example 81, 2-(1-(4-(1-sec-Butyl-3-((R)-3-hydroxypyrrolidin-1-yl)-1H-pyrazolo[4,3-c]pyridin-6-ylamino)pyrimidin-2-yl)-4-methoxypiperidin-4-yl)acetonitrile], for which the figures for the Ki on EGFR del746-750 T790M and at EGFR T790M L858R were 7.1 nM and 6.4 nM, respectively. Also, the EC50 in assay [1] amounted to 265 nM; in assay [2], 1470 nM.

Turning to `CCC(C)n1nc(N2CCNC2=O)c2cnc(Nc3ccnc(N4CC[C@H](OC)[C@H](F)C4)n3)cc21` (mixture of isomers) [Example 98, 1-{1-(sec-Butyl)-6-[2-((3R,4S)-3-fluoro-4-methoxypiperidin-1-yl)pyrimidin-4-ylamino]-1H-pyrazolo[4,3-c]pyridin-3-yl}imidazolidin-2-one], the Ki on EGFR del746-750 T790M stood at 1.8 nM; at EGFR T790M L858R it was 1 nM. In addition, the results for the EC50 in assay [1] and in assay [2] were 39.5 nM and 256 nM, respectively.

`CC(C)n1nc(NC(C)(C)C(N)=O)c2cnc(Nc3ccnc(N4CC[C@H](O)[C@H](F)C4)n3)cc21` (racemic) [Example 182, (±)-2-(6-(2-(cis-3-Fluoro-4-hydroxypiperidin-1-yl)pyrimidin-4-ylamino)-1-isopropyl-1H-pyrazolo[4,3-c]pyridin-3-ylamino)-2-methylpropanamide]: the figures for the Ki at EGFR del746-750 T790M and on EGFR T790M L858R were 1150 nM and 377 nM, respectively.

Turning to `CC[C@H](C)n1nc(N2CC[C@@H](O)C2)c2cnc(Nc3ccnc(N4CC[C@](C)(C(N)=O)C4)n3)cc21` (relative stereo) [Example 209, (S*)-1-(4-((1-((S*)-sec-Butyl)-3-((R)-3-hydroxypyrrolidin-1-yl)-1H-pyrazolo[4,3-c]pyridin-6-yl)amino)pyrimidin-2-yl)-3-methylpyrrolidine-3-carboxamide], the Ki at EGFR del746-750 T790M turned out to be 111 nM; on EGFR T790M L858R it was 143 nM.

For `CCC(C)n1nc(N2CC[C@@H](O)C2)c2cnc(Nc3ccnc(N4CCC5(CC4)CNC(=O)CO5)n3)cc21` (single isomer, unassigned) [Example 207, 9-(4-((1-((S*)-sec-Butyl)-3-((R)-3-hydroxypyrrolidin-1-yl)-1H-pyrazolo[4,3-c]pyridin-6-yl)amino)pyrimidin-2-yl)-1-oxa-4,9-diazaspiro[5.5]undecan-3-one], the Ki on EGFR del746-750 T790M was 1060 nM; on EGFR T790M L858R, 469 nM.

`CC(C)n1nc(N2CCC(C(N)=O)C2)c2cnc(Nc3ccnc(-c4cnn(S(=O)(=O)C5CC5)c4)n3)cc21` (stereo not drawn) [Example 60, 1-(6-(2-(1-(cyclopropylsulfonyl)-1H-pyrazol-4-yl)pyrimidin-4-ylamino)-1-isopropyl-1H-pyrazolo[4,3-c]pyridin-3-yl)pyrrolidine-3-carboxamide]: on EGFR del746-750 T790M, the Ki worked out at 0.5 nM. The results for the EC50 in assay [1] and in assay [2] were 28.2 nM and 608 nM, respectively.

Take `CC(C)n1nc(NC2CNC(=O)C2)c2cnc(Nc3ccnc(N4CCC(C)(O)CC4)n3)cc21` (stereo not drawn) [Example 77, 4-(6-(2-(4-Hydroxy-4-methylpiperidin-1-yl)pyrimidin-4-ylamino)-1-isopropyl-1H-pyrazolo[4,3-c]pyridin-3-ylamino)pyrrolidin-2-one]: the Ki on EGFR del746-750 T790M amounted to 29.2 nM; at EGFR T790M L858R it was 18.7 nM. The EC50 in assay [2] is above 10000 nM.

Turning to `CC(C)n1nc(N2CCN(C(=O)C(C)(C)O)CC2)c2cnc(Nc3ccnc(N4CCC(C)(O)CC4)n3)cc21` [Example 78, 2-Hydroxy-1-(4-(6-(2-(4-hydroxy-4-methylpiperidin-1-yl)pyrimidin-4-ylamino)-1-isopropyl-1H-pyrazolo[4,3-c]pyridin-3-yl)piperazin-1-yl)-2-methylpropan-1-one], the Ki amounted to 75.5 nM on EGFR del746-750 T790M and 21.5 nM at EGFR T790M L858R.

`CC1CCC(C)N1c1nn(C(C)C)c2cc(Nc3ccnc(-c4cnn(S(=O)(=O)C5CC5)c4)n3)ncc12` (stereo not drawn) [Example 91, N-(2-(1-(Cyclopropylsulfonyl)-1H-pyrazol-4-yl)pyrimidin-4-yl)-3-(2,5-dimethylpyrrolidin-1-yl)-1-isopropyl-1H-pyrazolo[4,3-c]pyridin-6-amine]: the Ki on EGFR del746-750 T790M was found to be 20.4 nM; at EGFR T790M L858R it was 20.2 nM.

`CC(C)n1nc(C#N)c2cnc(Nc3ccnc(-c4cnn(S(=O)(=O)C5CC5)c4)n3)cc21` [Example 93, 6-(2-(1-(Cyclopropylsulfonyl)-1H-pyrazol-4-yl)pyrimidin-4-ylamino)-1-isopropyl-1H-pyrazolo[4,3-c]pyridine-3-carbonitrile]: the Ki on EGFR del746-750 T790M is 65.4 nM; at EGFR T790M L858R, 110 nM.

Take `CC(C)n1nc(C2(C)CCCO2)c2cnc(Nc3ccnc(N4CCC(C)(O)CC4)n3)cc21` (stereo not drawn) [Example 94, 1-(4-(1-Isopropyl-3-(2-methyltetrahydrofuran-2-yl)-1H-pyrazolo[4,3-c]pyridin-6-ylamino)pyrimidin-2-yl)-4-methylpiperidin-4-ol]: the Ki is above 2900 nM on EGFR del746-750 T790M and 872 nM on EGFR T790M L858R.

On to `CC(C)n1nc(C2=NC(C)(C)NC2=O)c2cnc(Nc3ccnc(N4CCC(C)(O)CC4)n3)cc21` [Example 95, 4-(6-(2-(4-Hydroxy-4-methylpiperidin-1-yl)pyrimidin-4-ylamino)-1-isopropyl-1H-pyrazolo[4,3-c]pyridin-3-yl)-2,2-dimethyl-1,2-dihydroimidazol-5-one], for which the Ki came out at 59.5 nM on EGFR del746-750 T790M and 15.2 nM on EGFR T790M L858R.

Take `CCC(=O)N1CCN(c2nn(C(C)C)c3cc(Nc4ccnc(N5CCC(C)(O)CC5)n4)ncc23)CC1` [Example 134, 1-(4-(6-(2-(4-Hydroxy-4-methylpiperidin-1-yl)pyrimidin-4-ylamino)-1-isopropyl-1H-pyrazolo[4,3-c]pyridin-3-yl)piperazin-1-yl)propan-1-one]: the Ki at EGFR del746-750 T790M was 33.7 nM; at EGFR T790M L858R, 11.5 nM.

On to `CC(C)n1nc(N2CCN(C(=O)CO)CC2)c2cnc(Nc3ccnc(N4CCC(C)(O)CC4)n3)cc21` [Example 135, 2-Hydroxy-1-(4-(6-(2-(4-hydroxy-4-methylpiperidin-1-yl)pyrimidin-4-ylamino)-1-isopropyl-1H-pyrazolo[4,3-c]pyridin-3-yl)piperazin-1-yl)ethanone], for which the Ki at EGFR del746-750 T790M worked out at 46.3 nM; on EGFR T790M L858R, 10.3 nM.

In the case of `CC(O)C(=O)N1CCN(c2nn(C(C)C)c3cc(Nc4ccnc(N5CCC(C)(O)CC5)n4)ncc23)CC1` (stereo not drawn) [Example 136, 2-Hydroxy-1-(4-(6-(2-(4-hydroxy-4-methylpiperidin-1-yl)pyrimidin-4-ylamino)-1-isopropyl-1H-pyrazolo[4,3-c]pyridin-3-yl)piperazin-1-yl)propan-1-one], the figures for the Ki at EGFR del746-750 T790M and at EGFR T790M L858R were 39.9 nM and 10.6 nM, respectively.

For the compound `CC1COCC(C)N1c1nn(C(C)C)c2cc(Nc3ccnc(-c4cnn(S(=O)(=O)C5CC5)c4)n3)ncc12` (stereo not drawn) [Example 180, N-(2-(1-(Cyclopropylsulfonyl)-1H-pyrazol-4-yl)pyrimidin-4-yl)-3-(3,5-dimethylmorpholino)-1-isopropyl-1H-pyrazolo[4,3-c]pyridin-6-amine], the Ki at EGFR del746-750 T790M was 201 nM; at EGFR T790M L858R, 302 nM. Further, the EC50 in assay [2] was above 10000 nM.

With `CCC(C)n1nc(N2CC[C@H](O)C2=O)c2cnc(Nc3ccnc(N4CC[C@@H](O)[C@@H](F)C4)n3)cc21` (stereo partly drawn) [Example 201, (3S)-1-(1-(sec-Butyl)-6-((2-((3S,4R)-3-fluoro-4-hydroxypiperidin-1-yl)pyrimidin-4-yl)amino)-1H-pyrazolo[4,3-c]pyridin-3-yl)-3-hydroxypyrrolidin-2-one], the Ki at EGFR del746-750 T790M came to 14 nM; on EGFR T790M L858R it was 5.8 nM. In assay [2], the EC50 was above 10000 nM.
